Laboratory results: US20250042922A1, “KRAS MODULATING COMPOUNDS” (priority 2023, published 2025)
pEC50, pIC50: −log10 of the molar value. Read-outs that look alike come from different tables or passages of the source.

Columns and labels:
[1] = tested on: cellular pERK in Kuramochi (WT KRAS) cells; assay: Cell based pERK assay, Kuramochi; details: read-out: Kuramochi pERK EC50
Summary of the method: (§1)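 Cells seeded overnight (5000 AsPC-1 or 7500 others per well; RPMI/10% FBS, DMEM/10% FBS for MIA-PaCa-2), treated with 1:3 serial dilutions for 2 h at 37 °C. Phospho-ERK1/2 (Thr202/Tyr204) measured by HTRF (665/615 nm) after overnight lysis, normalized to DMSO and saturating known-inhibitor controls.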

GDP-loaded KRAS-G12C = GDP-loaded KRAS-G12C (Homo sapiens, UniProt P01116, G12C); assay: KRAS (GDP) biochemical TR-FRET probe displacement assay, G12C; assay type: binding; details: 2 hours
Experimental: (§2) Compounds are tested for binding to GDP-loaded wild-type KRAS (WT), KRAS-G12C, KRAS-G12D, and KRAS-G12V in a 384-well assay format using a TR-FRET probe displacement assay in buffer consisting of 50 mM Hepes (pH 7.4), 150 mM NaCl, 5 mM MgCl2 and 0.005% Tween-20. […] Compounds are serially diluted (1:3) in DMSO. The LabCyte ECHO Acoustic dispenser was used to pre-spot the assay plates (384-well Non-Binding Surface plates, Corning, Catalog #3824) with 50 nL of compound. 5 μL of 2X enzyme concentration is added to the pre-spotted plates and incubated for 30 minutes before adding 5 μL of 2X concentration of Eu-streptavidin and Cy-5 labelled probe (10 μL final reaction volume). The plates are incubated at room temperature for 2 hours before measuring TR-FRET ratio (665 nm/615 nm) on the Envision multimode plate reader. The ratios are normalized to a positive (saturating concentration of known inhibitor) and negative (DMSO) control and plotted against the log of compound concentration.

GDP-loaded KRAS-G12D = GDP-loaded KRAS-G12D (Homo sapiens, UniProt P01116, G12D); assay: KRAS (GDP) biochemical TR-FRET probe displacement assay, G12D; assay type: binding; details: 2 hours
Experimental: as §2

[2] = tested on: cellular pERK in ASPC-1 (KRAS G12D) cells; assay: Cell based pERK assay, ASPC-1; details: Homo sapiens, read-out: AsPC1 pERK EC50
Summary of the method: as §1

GDP-loaded KRAS-G12V = GDP-loaded KRAS-G12V (Homo sapiens, UniProt P01116, G12V); assay: KRAS (GDP) biochemical TR-FRET probe displacement assay, G12V; assay type: binding; details: 2 hours
Experimental: as §2

[3] = tested on: cellular pERK in NCI-H441 (KRAS-G12V) cells; assay: Cell based pERK assay, NCI-H441; details: Homo sapiens, read-out: H441 PERK EC50
Summary of the method: as §1

[4] = biological target: GDP-loaded wild-type KRAS (WT) (Homo sapiens, UniProt P01116); assay: KRAS (GDP) biochemical TR-FRET probe displacement assay, WT; assay type: binding; details: 2 hours
Experimental: as §2

[5] = tested on: cellular pERK in MIA-PaCa-2 (KRAS-G12C) cells; assay: Cell based pERK assay, MIA-PaCa-2; details: Homo sapiens, read-out: MIAPaCa2 pERK EC50
Summary of the method: as §1

[6] = Kuramochi (WT KRAS), 2 hours incubation, HTRF phospho-ERK1/2
[7] = ASPC1, ASPC-1 (KRAS G12D), 2 hours incubation, HTRF phospho-ERK1/2
[8] = NCI-H441 (KRAS-G12V), 2 hours incubation, HTRF phospho-ERK1/2
[9] = MIA-PaCa-2 (KRAS-G12C), 2 hours incubation, HTRF phospho-ERK1/2

Chain of GDP-loaded KRAS-G12V (P01116 1-188 isoform P01116-2 G12V): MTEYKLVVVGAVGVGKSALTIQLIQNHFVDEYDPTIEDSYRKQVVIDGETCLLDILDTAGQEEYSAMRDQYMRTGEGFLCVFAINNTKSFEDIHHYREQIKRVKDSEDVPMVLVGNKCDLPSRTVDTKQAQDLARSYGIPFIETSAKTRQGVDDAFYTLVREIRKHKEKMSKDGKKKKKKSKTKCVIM
Chain of GDP-loaded KRAS-G12D (P01116 1-188 isoform P01116-2 G12D): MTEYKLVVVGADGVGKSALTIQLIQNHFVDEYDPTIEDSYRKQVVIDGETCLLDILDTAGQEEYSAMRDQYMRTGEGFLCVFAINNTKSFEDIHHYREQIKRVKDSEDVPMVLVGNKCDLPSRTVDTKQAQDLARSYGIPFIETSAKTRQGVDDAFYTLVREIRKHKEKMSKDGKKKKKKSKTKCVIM
Chain of GDP-loaded wild-type KRAS (WT) (P01116 1-188 isoform P01116-2): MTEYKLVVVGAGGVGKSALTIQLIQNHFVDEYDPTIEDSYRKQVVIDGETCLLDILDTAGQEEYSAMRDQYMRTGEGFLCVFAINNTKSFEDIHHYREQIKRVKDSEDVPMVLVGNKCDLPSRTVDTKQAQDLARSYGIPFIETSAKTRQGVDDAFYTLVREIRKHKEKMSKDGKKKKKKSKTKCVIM
Chain of GDP-loaded KRAS-G12C (P01116 1-188 isoform P01116-2 G12C): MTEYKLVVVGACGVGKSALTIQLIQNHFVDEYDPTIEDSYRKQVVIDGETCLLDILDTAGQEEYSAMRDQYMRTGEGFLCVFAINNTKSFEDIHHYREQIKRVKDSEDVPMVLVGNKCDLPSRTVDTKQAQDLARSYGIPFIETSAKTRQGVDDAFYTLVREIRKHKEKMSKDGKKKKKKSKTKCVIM

| Compound | pEC50 [1, 6] | pIC50 (GDP-loaded KRAS-G12C) | pIC50 (GDP-loaded KRAS-G12D) | pEC50 [2, 7] | pIC50 (GDP-loaded KRAS-G12V) | pEC50 [3, 8] | pIC50 [4] | pEC50 [5, 9] | pEC50 ([1]; 2 h) | pEC50 ([2]; ASPC1, 2 h) | pEC50 ([3]; NCI-H441, 2 h) | pEC50 ([5]; MIA PaCa-2, 2 h) |
| --- | --- | --- | --- | --- | --- | --- | --- | --- | --- | --- | --- | --- |
| Cc1c(F)c(N)cc(-c2nc3c4c(nc(OC[C@@]56CCCN5C[C@H](F)C6)nc4c2F)N2C[C@@]4(F)CC[C@](F)(N4)[C@H]2CCC3)c1C(F)(F)F [Example 4-4] | 7.81 | 7.33 | < 7.00 | 6.76 | 7.35 | 6.05 | 7.59 | 7.23 |  |  |  |  |
| C[C@H]1Cc2nc(-c3cc(O)cc4ccc(F)c(F)c34)c(F)c3nc(OCC45CCCN4CCC5)nc(c23)N2C[C@@]3(F)CC[C@](F)(N3)[C@H]12 [Example 4-12, 5,6-difluoro-4-((5S,5aS,6R,9S)-1,6,9-trifluoro-5-methyl-12-((tetrahydro-1H-pyrrolizin-7a(5H)-yl)methoxy)-4,5,5a,6,7,8,9,10-octahydro-3,10a,11,13,14-pentaaza-6,9-methanonaphtho[1,8-ab]eptalene-2-yl)naphthalen-2-ol] |  | 9.76 | 8.94 |  | 9.45 |  | 10.07 |  | 8.77 | 7.54 | 8.43 | 9.03 |
| Cc1c(F)c(N)cc(-c2nc3c4c(nc(OCC56CCCN5CCC6)nc4c2F)N2C[C@@]4(F)CC[C@](F)(N4)[C@@H]2[C@@H](C)C3)c1C(F)(F)F [Example 4-13, 2-fluoro-3-methyl-5-((5S,5aS,6R,9S)-1,6,9-trifluoro-5-methyl-12-((tetrahydro-1H-pyrrolizin-7a(5H)-yl)methoxy)-4,5,5a,6,7,8,9,10-octahydro-3,10a,11,13,14-pentaaza-6,9-methanonaphtho[1,8-ab]heptalen-2-yl)-4-(trifluoromethyl)aniline] | 8.56 | 8.42 | 7.70 | 6.96 | 8.09 | 7.74 | 9.39 | 8.25 |  |  |  |  |
| C[C@H]1Cc2nc(-c3ccc(F)c4sc(N)c(C#N)c34)c(F)c3nc(OCC45CCCN4CCC5)nc(c23)N2C[C@@]3(F)CC[C@](F)(N3)[C@H]12 [Example 4-14, 2-amino-7-fluoro-4-((5S,5aS,6R,9S)-1,6,9-trifluoro-5-methyl-12-((tetrahydro-1H-pyrrolizin-7a(5H)-yl)methoxy)-4,5,5a,6,7,8,9,10-octahydro-3,10a,11,13,14-pentaaza-6,9-methanonaphtho[1,8-ab]heptalen-2-yl)benzo[b]thiophene-3-carbonitrile] | 7.97 | 9.27 | 8.94 | 7.40 | 9.27 | 8.28 | 9.49 | 8.94 |  |  |  |  |
| N#Cc1c(N)sc2c(F)ccc(-c3nc4c5c(nc(OC[C@@]67CCCN6C[C@H](F)C7)nc5c3F)N3C[C@@]5(F)CC[C@](F)(N5)[C@@H]3CC4)c12 [Example 4-21, 2-amino-7-fluoro-4-((5aS,6R,9S)-1,6,9-trifluoro-12-(((2R,7aS)-2-fluorotetrahydro-1H-pyrrolizin-7a(5H)-yl)methoxy)-4,5,5a,6,7,8,9,10-octahydro-3,10a,11,13,14-pentaaza-6,9-methanonaphtho[1,8-ab]heptalen-2-yl)benzo[b]thiophene-3-carbonitrile] | 8.76 | 9.44 | 8.64 | 8.22 | 9.07 | 8.96 | 9.74 | 9.50 |  |  |  |  |
| Oc1cc(-c2nc3c4c(nc(OCC56CCCN5CCC6)nc4c2F)N2C[C@@]4(F)CC[C@](F)(N4)[C@H]2CCC3)c2c(OC(F)(F)F)c(F)ccc2c1 [Example 4-23, 6-fluoro-4-[(4S,7R,8R)-4,7,15-trifluoro-18-(1,2,3,5,6,7-hexahydropyrrolizin-8-ylmethoxy)-2,13,17,19,21-pentazapentacyclo[10.7.1.14,7.02,8.016,20]henicosa-1(19),12(20),13,15,17-pentaen-14-yl]-5-(trifluoromethoxy)naphthalen-2-ol] | 8.59 | 9.23 | 8.44 | 7.29 | 8.67 | 8.16 | 9.30 | 8.92 |  |  |  |  |
| Cn1ccc2cc(N)cc(-c3nc4c5c(nc(OCC67CCCN6CCC7)nc5c3F)N3C[C@@]5(F)CC[C@](F)(N5)[C@H]3CCC4)c2c1=O [Example 4-25] | < 6.00 | < 7.00 | < 7.00 | < 6.00 | < 7.00 | < 6.00 | < 7.00 | < 6.00 |  |  |  |  |
| C/C=C\c1c(Cl)cc2[nH]ncc2c1-c1nc2c3c(nc(OCC45CCCN4CCC5)nc3c1F)N1C[C@@]3(F)CC[C@](F)(N3)[C@H]1CCC2 [Example 4-26, (4S,7R,8R)-14-[6-chloro-5-[(Z)-prop-1-enyl]-1H-indazol-4-yl]-4,7,15-trifluoro-18-(1,2,3,5,6,7-hexahydropyrrolizin-8-ylmethoxy)-2,13,17,19,21-pentazapentacyclo[10.7.1.14,7.02,8.016,20]henicosa-1(19),12(20),13,15,17-pentaene] | 8.36 | 8.91 | 8.17 | 7.34 | 8.36 | 7.50 | 8.73 | 9.11 |  |  |  |  |
| C[C@H]1Cc2nc(-c3cc(O)cc4ccc(F)c(Cl)c34)c(F)c3nc(OCC45CCCN4CCC5)nc(c23)N2C[C@@]3(F)CC[C@](F)(N3)[C@H]12 [Example 4-30, 5-chloro-6-fluoro-4-((5S,5aS,6R,9S)-1,6,9-trifluoro-5-methyl-12-((tetrahydro-1H-pyrrolizin-7a(5H)-yl)methoxy)-4,5,5a,6,7,8,9,10-octahydro-3,10a,11,13,14-pentaaza-6,9-methanonaphtho[1,8-ab]heptalen-2-yl)naphthalen-2-ol] | 8.71 | 9.71 | 9.06 | 7.75 | 9.39 | 8.31 | 10.04 | 9.44 |  |  |  |  |
| C#Cc1c(F)ccc2cc(N)cc(-c3nc4c5c(nc(OC[C@@]67CCCN6[C@H](COC(C(F)(F)F)(C(F)(F)F)C(F)(F)F)CC7)nc5c3F)N3C[C@@]5(F)CC[C@](F)(N5)[C@@H]3[C@@H](C)C4)c12 [Example 4-36, 5-ethynyl-6-fluoro-4-((5S,5aS,6R,9S)-1,6,9-trifluoro-12-(((3S,7aS)-3-(((1,1,1,3,3,3-hexafluoro-2-(trifluoromethyl)propan-2-yl)oxy)methyl)tetrahydro-1H-pyrrolizin-7a(5H)-yl)methoxy)-5-methyl-4,5,5a,6,7,8,9,10-octahydro-3,10a,11,13,14-pentaaza-6,9-methanonaphtho[1,8-ab]heptalen-2-yl)naphthalen-2-amine] | 6.17 | < 7.00 | < 7.00 | < 6.00 | < 7.00 | < 6.00 | < 7.00 | < 6.00 |  |  |  |  |
| C[C@H]1Cc2nc(-c3cc(N)cc4ccc(F)c(F)c34)c(F)c3nc(OCC45CCCN4CCC5)nc(c23)N2C[C@@]3(F)CC[C@](F)(N3)[C@H]12 [Example 5-1, 5,6-difluoro-4-((5S,5aS,6R,9S)-1,6,9-trifluoro-5-methyl-12-((tetrahydro-1H-pyrrolizin-7a(5H)-yl)methoxy)-4,5,5a,6,7,8,9,10-octahydro-3,10a,11,13,14-pentaaza-6,9-methanonaphtho[1,8-ab]heptalen-2-yl)naphthalen-2-amine] | 8.66 | 8.77 | 7.80 | 7.20 | 8.13 |  | 9.57 | 8.63 |  |  |  |  |
